Experimental data as given in US12343332B2, “Treatment of a bacterial vaginal infection” (Adamed Pharma S.A., priority 2017, dated 2025).
Values after ≈ are worked out from the molar mass of the structure shown. “Also recorded” adds a separate entry of the source. Read-outs that look alike come from different tables or passages of the source.

Tests used:
Type in all cases: cell-based
[1] = system: Atopobium vaginae ATCC BAA 55; test: MIC, macro dilution method for bacteria in a solid medium; conditions: for MIC: Fannyhessea vaginae, BAA55, 168 h, read-out: MIC value; for antibacterial activity (in words): against Atopobium vaginae
Method: (§1) Strains used in the study were Gardnerella vaginalis ATCC 14018, Atopobium vaginae ATCC BAA 55, Candida albicans ATCC 90028, and Candida [NT] 2001. […] To perform the assay, a pure, 48-hour strain reference culture was used, from which a bacterial suspension with a density of 1.0 McFarland in sterile saline was prepared. The suspension was plated onto Schaedler agar medium supplemented with 5% sheep blood (Becton Dickinson) and a test compound at the appropriate concentration. After incubation, the value MIC was read. Colony growth on the plate indicated no activity of the test compound at tested concentration. As the MIC value, the last lowest concentration as taken, at which there was no microbial growth. [table]

[2] = system: Gardnerella vaginalis ATCC 14018; test: as above; conditions: for MIC: Gardnerella vaginalis, ATCC14018, 72 h, read-out: MIC value; for antibacterial activity (in words): against Gardnerella vaginalis
Method: as §1

[3] = system: Candida albicans ATCC 90028; test: MIC, macro dilution method for yeast-like fungi in a liquid medium; conditions: for MIC: read-out: MIC value
Method: (§2) Strains used in the study were Gardnerella vaginalis ATCC 14018, Atopobium vaginae ATCC BAA 55, Candida albicans ATCC 90028, and Candida [NT] 2001. […] Liquid medium RPMI 1640 (Sigma-Aldrich) was used for fungi of the species Candida albicans ATCC 90028, and Candida [NT] 2001, in which 15 serial dilution were prepared in a range 500 μg/mL-0.03 μg/mL. From a pure 24-hour culture on Sabouraud solid medium, a fungal suspension having density of 0.5 McFarland in sterile saline. Next, the suspension was diluted, and was introduced into the RPMI 1640 medium yielding final concentrations of fungi 10^5 CFU/mL. Incubation was carried out for 24 hours in aerobic conditions in 37° C. Colony growth on the plate indicated no activity of the test compound at tested concentration. As the MIC value, the last lowest concentration as taken, at which there was no microbial growth

[4] = system: Candida glabrata ATCC 2001; test: as above; conditions: for MIC: Nakaseomyces glabratus, read-out: MIC value
Method: as §2

[5] = system: Atopobium vaginae ATCC BAA 55; test: Synergistic action at 2-fold lower concentrations than MIC, solid medium; conditions: for Synergy with Metronidazole / Synergy with Nystatin: Atopobium vaginae ATCC BAA 55, Furazidin 0.03 mg/L, Nitrofurantoin 0.98 mg/L, Nifuratel 1.95 mg/L; for Synergy with Metronidazole: Metronidazole 0.5 mg/L; for Synergy with Nystatin: Nystatin 250 mg/L; for synergistic effects with metronidazole (in words): against Atopobium vaginae
Method: (§3) To perform the assay, a pure, 48-hour strain reference culture was used, from which a bacterial suspension with a density of 1.0 McFarland in sterile saline was prepared. The suspension was plated onto Schaedler agar medium supplemented with 5% sheep blood (Becton Dickinson) and a test compound at the appropriate concentration. After incubation, the value MIC was read. Colony growth on the plate indicated no activity of the test compound at tested concentration. As the MIC value, the last lowest concentration as taken, at which there was no microbial growth. […] Lack of bacterial growth on the plate was interpreted as a synergic action. [table]

[6] = system: Gardnerella vaginalis ATCC 14018; test: as above; conditions: for Synergy with Metronidazole / Synergy with Nystatin: Gardnerella vaginalis ATCC 14018, Furazidin 0.25 mg/L, Nitrofurantoin 0.5 mg/L, Nifuratel 0.98 mg/L; for Synergy with Metronidazole: Metronidazole 125 mg/L; for Synergy with Nystatin: Nystatin 250 mg/L; for synergistic effects with metronidazole (in words): against Gardnerella vaginalis
Method: as §3

[7] = system: Candida albicans ATCC 90028; test: Synergistic action at 2-fold lower concentrations than MIC, liquid medium; conditions: for Synergy with Metronidazole / Synergy with Nystatin: Candida albicans ATCC 90028, each nitrofuran 250 mg/L; for Synergy with Metronidazole: Metronidazole 250 mg/L; for Synergy with Nystatin: Nystatin 0.98 mg/L
Method: (§4) Liquid medium RPMI 1640 (Sigma-Aldrich) was used for fungi of the species Candida albicans ATCC 90028, and Candida [NT] 2001, in which 15 serial dilution were prepared in a range 500 μg/mL-0.03 μg/mL. From a pure 24-hour culture on Sabouraud solid medium, a fungal suspension having density of 0.5 McFarland in sterile saline. Next, the suspension was diluted, and was introduced into the RPMI 1640 medium yielding final concentrations of fungi 10^5 CFU/mL. Incubation was carried out for 24 hours in aerobic conditions in 37° C. Colony growth on the plate indicated no activity of the test compound at tested concentration. As the MIC value, the last lowest concentration as taken, at which there was no microbial growth […] Lack of fungal growth on the plate was interpreted as a synergic action.

[8] = system: Candida glabrata ATCC 2001; test: as above; conditions: for Synergy with Metronidazole / Synergy with Nystatin: Candida glabrata ATCC 2001, each nitrofuran 250 mg/L; for Synergy with Metronidazole: Metronidazole 125 mg/L; for Synergy with Nystatin: Nystatin 0.98 mg/L
Method: as §4

[9] = Atopobium vaginae ATCC BAA 55, Schaedler agar, anaerobic, 37° C., 7 days
[10] = Gardnerella vaginalis ATCC 14018, Schaedler agar, microaerophilic, 37° C., 72 hours
[11] = ATCC90028, Candida albicans ATCC 90028, RPMI 1640, 24 hours, aerobic, 37° C.
[12] = ATCC2001, Candida glabrata ATCC 2001, RPMI 1640, 24 hours, aerobic, 37° C.
[13] = Candida albicans ATCC 90028, RPMI 1640, 24 hours, aerobic, 37° C.
[14] = Candida glabrata ATCC 2001, RPMI 1640, 24 hours, aerobic, 37° C.

For `CCC[C@@H]1C[C@@H](C(=O)N[C@@H]([C@H]2O[C@H](SC)[C@H](O)[C@@H](O)[C@H]2O)[C@H](C)Cl)N(C)C1` [Clindamycin], the MIC value [1, 9] was less than 0.03 mg/L, the MIC [1, 9] was less than 0.03 µg/mL and the MIC value [2, 10] was 1.95 mg/L (≈ 4.59 µM). For the same molecule, the MIC [2, 10] was less than 1.95 µg/mL.
In the case of `O=C1CN(/N=C/C=C/c2ccc([N+](=O)[O-])o2)C(=O)N1` [Furazidin], the MIC value [1, 9] is reported as less than 0.03 mg/L, the MIC [1, 9] is reported as less than 0.03 µg/mL and the “antibacterial activity (in words)” value [1] is reported as “highest antibacterial activity in the group of nitrofuran derivatives”. For the same molecule, the MIC value [2, 10] was 0.49 mg/L (≈ 1.85 µM), the MIC [2, 10] was less than 0.49 µg/mL and the “antibacterial activity (in words)” value [2] was “highest antibacterial activity in the group of nitrofuran derivatives”. For the same molecule, the MIC [3, 11] was 500 µg/mL (≈ 1890 µM), the MIC [4, 12] was 500 µg/mL (≈ 1890 µM) and the “Synergy with Metronidazole” value [5] was “+”. The “Synergy with Nystatin” value [5] was “+”, the “synergistic effects with metronidazole (in words)” value [5] was “synergy; also recorded: synergistic effects” and the “synergistic effects with nystatin (in words)” value ([5]; on Atopobium vaginae) was “synergistic effect”. The “Synergy with Metronidazole” value [6] was “+”, the “Synergy with Nystatin” value [6] was “+” and the “synergistic effects with metronidazole (in words)” value [6] was “synergy; also recorded: synergistic effects”. The “synergistic effects with nystatin (in words)” value ([6]; on Gardnerella vaginalis) was “synergistic effect”, the “Synergy with Metronidazole” value [7] was “+” and the “Synergy with Nystatin” value [7] was “−”. The “synergistic effects with metronidazole (in words)” value ([7]; against Candida albicans) was “synergy”, the “Synergy with Metronidazole” value [8] was “+” and the “Synergy with Nystatin” value [8] was “+”. The “synergistic effects with metronidazole (in words)” value ([8]; against Candida glabrata) was “synergy” and the “synergistic effects with nystatin (in words)” value ([8]; against Candida glabrata) was “synergistic effects”.
In the case of `Cc1ncc([N+](=O)[O-])n1CCO` [Metronidazol, Metronidazole], the MIC [1, 9] is reported as 0.98 µg/mL (≈ 5.73 µM), the “antibacterial activity (in words)” value [1] is reported as “antibacterial activity” and the MIC [2, 10] is reported as 250 µg/mL (≈ 1460 µM). The “antibacterial activity (in words)” value [2] was “antibacterial activity”, the MIC [3, 11] was 500 µg/mL (≈ 2920 µM) and the MIC [4, 12] was 250 µg/mL (≈ 1460 µM).
`CSCC1CN(/N=C/c2ccc([N+](=O)[O-])o2)C(=O)O1` (stereo not shown) [Nifuratel] was tested, and the MIC [1] was 3.9 µg/mL (≈ 13.7 µM), the “antibacterial activity (in words)” value [1] was “antibacterial activity” and the MIC [2] was 1.95 µg/mL (≈ 6.84 µM). For the same molecule, the “antibacterial activity (in words)” value [2] was “antibacterial activity”, the MIC ([3]; Candida albicans, ATCC90028, 24 h) was greater than 500 µg/mL and the MIC ([4]; ATCC2001, 24 h) was 500 µg/mL (≈ 1750 µM). For the same molecule, the “Synergy with Metronidazole” value [5] was “−”, the “Synergy with Nystatin” value [5] was “+” and the “Synergy with Metronidazole” value [6] was “−”. The “Synergy with Nystatin” value [6] was “+”, the “Synergy with Metronidazole” value [7] was “+” and the “Synergy with Nystatin” value [7] was “−”. The “Synergy with Metronidazole” value [8] was “+” and the “Synergy with Nystatin” value [8] was “−”.
With `O=C1CN(/N=C/c2ccc([N+](=O)[O-])o2)C(=O)N1` [Nitrofurantion, Nitrofurantoin] the MIC value [1, 9] was 1.95 mg/L (≈ 8.19 µM), the “antibacterial activity (in words)” value [1] was “antibacterial activity” and the MIC value [2, 10] was 0.98 mg/L (≈ 4.11 µM). For the same molecule, the “antibacterial activity (in words)” value [2] was “antibacterial activity”, the MIC value [3, 13] was 500 mg/L (≈ 2100 µM) and the MIC value [4, 14] was 500 mg/L (≈ 2100 µM). The “Synergy with Metronidazole” value [5] was “+”, the “Synergy with Nystatin” value [5] was “+” and the “synergistic effects with metronidazole (in words)” value [5] was “synergistic effects”. For the same molecule, the “Synergy with Metronidazole” value [6] was “+”, the “Synergy with Nystatin” value [6] was “+” and the “synergistic effects with metronidazole (in words)” value [6] was “synergistic effects”. The “Synergy with Metronidazole” value [7] was “+”, the “Synergy with Nystatin” value [7] was “−” and the “Synergy with Metronidazole” value [8] was “+”. For the same molecule, the “Synergy with Nystatin” value [8] was “−”.
`C[C@@H]1[C@H](O)[C@@H](C)/C=C/C=C/CC/C=C/C=C/C=C/C=C/C(O[C@H]2O[C@H](C)[C@@H](O)[C@H](N)[C@@H]2O)CC2O[C@](O)(CC(O)C(O)CCC(O)CC(O)CC(O)CC(=O)O[C@H]1C)CC(O)C2C(=O)O` (stereo partly shown) [Nystatin] gave an MIC value [1, 9] of 500 mg/L (≈ 540 µM), an MIC value [2, 10] of 500 mg/L (≈ 540 µM) and an MIC value [3, 13] of 1.98 mg/L (≈ 2.14 µM). It also gave an MIC value [4, 14] of 1.98 mg/L (≈ 2.14 µM).
